Experimental data reported in paper PMC3124137 (Experimental Diabetes Research, 2011).
Entries after “also recorded” stand apart in the source; their conditions may differ.

What was measured:
[1] = in vivo; cited from earlier work
Source text: Incretin mimetics have been introduced in the market to be used as therapies for diabetes mellitus [[2 ...

[2] = system: GLP-1 receptors on the human coronary endothelial cells; parameters: method as in earlier work; conditions: ref 27 (Nystrom et al.); cited from earlier work
[3] = cited from earlier work
Source text: (§1) Furthermore, this effect was eliminated upon the removal of the endothelial lining.

[4] = Plasma active GLP-1 (ELISA); format: in vivo, rat (male Sprague-Dawley); conditions: STZ-diabetic rats; active GLP-1 (7–36 and 7–37) by ELISA over one month, N = 6
Description: (§2) Groups D, DI, DE, DA, DIA and DEA were induced to type 1 diabetes mellitus by a single intravenous injection of streptozotocin (STZ; 85 mg/kg bw) (Sigma Chemical Co., Saint Louis, Mo, USA) in saline acidified to pH 4.5 with 0.1 M citrate buffer. Three days later, nonfasting blood glucose level was measured using Accu-Chek (Accu-Chek Instant Test; Roche Diagnostics GmbH, Mannheim, Germany); a level of ≥250 mg/dL confirmed type 1 diabetes mellitus.
Rats were anesthetized, and blood was collected from the sublingual vein on days 1, 7, 14, 21, and 28 of the treatment period, at a constant time range of 9 to 10 AM. […] A relative fluorescent unit (RFU) curve was plotted using these standards (Figure 1).

[5] = system: streptozotocin-induced type 1 diabetic rats; experiment: Blood glucose (Accu-Chek); format: in vivo, rat (male Sprague-Dawley); conditions: STZ-diabetic rats; for effect of treatment on blood glucose level: one month of treatment, N = 24, P < .05 significant
Description: as §2
(§3) All the animals were weighed weekly, and blood glucose levels were determined using Accu-Chek (Accu-Chek instant test, Roche Diagnostics GmbH, Mannheim, Germany) weekly during one month of treatment.

[6] = biological target: T1, GLP-1 receptor at the coronary endothelium (Rattus norvegicus, UniProt P32301); experiment: Perfusion of rat heart with ^125I-GLP-1: binding at the coronary endothelium (buffer alone, CHAPS-untreated); parameters: species or system rat (male Sprague-Dawley)
T1 construct: from tissue; host or cells: in situ perfused heart of male Sprague-Dawley rats (normal, streptozotocin-diabetic and treated groups)
T1 sequence (P32301 22-463): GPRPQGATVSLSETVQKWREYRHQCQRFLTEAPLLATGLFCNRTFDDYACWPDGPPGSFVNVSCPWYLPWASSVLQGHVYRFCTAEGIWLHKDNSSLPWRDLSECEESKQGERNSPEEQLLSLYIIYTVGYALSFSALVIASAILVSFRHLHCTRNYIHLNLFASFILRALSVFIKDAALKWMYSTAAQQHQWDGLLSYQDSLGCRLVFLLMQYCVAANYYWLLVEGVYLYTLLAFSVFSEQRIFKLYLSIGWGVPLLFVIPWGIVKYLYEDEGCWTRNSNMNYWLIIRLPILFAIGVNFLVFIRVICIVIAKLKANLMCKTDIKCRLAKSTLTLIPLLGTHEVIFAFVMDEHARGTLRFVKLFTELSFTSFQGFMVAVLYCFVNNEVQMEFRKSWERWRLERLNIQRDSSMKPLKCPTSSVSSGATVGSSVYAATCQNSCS
Description: (§4) In addition, the left and right lungs were tied in order to block the blood flow to them and to other organs. The aorta was slightly cut, and a polyethylene catheter was inserted (from cephalad to caudad) into its lumen to reach the aortic valve. The right atrium was punctured, and another catheter was inserted to carry out the perfusate. Both catheters were secured with a suture. A 50 mL syringe filled with heparinized Ringer-Lock buffer containing 20 meq/L K ^+, oxygenated with 95% O2, 5% CO2 at 37°C linked to an infusion pump was attached to the inlet. This solution cleared the heart from blood and clots for 15 minutes; infusion of a Ringer-Lock buffer solution for another 15 minutes cleared the heart from heparin. These steps were followed by the perfusion of a buffer containing 8.25 × 10^−4 nM/L [^125I] […] The perfusate was collected for 20 minutes at specific time intervals (between 0-1, 1-2, 2-3, 3-4, 4-5, 5-6, 6-7, 7-8, 8-9, 9-10, 10–12, 12–15, 15–20 minutes); after each collection, 500 μL of the sample was put in a liquid scintillation vial containing 4 mL of Ecolume scintillation cocktail, which was later assayed for radioactivity by a liquid scintillation analyzer. […]

[7] = system: left ventricular hypertrophy; conditions: compared with angiotensin receptor blockers; cited from earlier work
Source text: Diabetes mellitus currently affects more than 170 million individuals worldwide. Other than hyperglycemia, diabetes mellitus can cause a 2-3-fold increase in the occurrence of cardiovascular disease (CVD). […] Receptor signaling on the pancreas leads to enhanced insulin biosynth ...

[8] = system: type 2 diabetic mice; conditions: cited from earlier work
[9] = biological target: T2, GLP-1 receptor at the cardiomyocytes (Rattus norvegicus, UniProt P32301); experiment: Perfusion of rat heart with ^125I-GLP-1: binding at the cardiomyocytes (CHAPS-treated); parameters: species or system rat (male Sprague-Dawley); conditions: STZ-diabetic rats, one month of treatment, compared with diabetic (D) and normal (N)
T2 construct: from tissue; host or cells: in situ perfused heart of male Sprague-Dawley rats (normal, streptozotocin-diabetic and treated groups)
T2 sequence (P32301 22-463): T1 sequence (P32301 22-463)
Description: as §4

[10] = system: nitric oxide synthase production by endothelial cells; conditions: ref 28 (Dong et al.); cited from earlier work
Source text: as §1

[11] = in vivo; cited from earlier work; remark: listed apart in the source
Source text: The intravenous injection of streptozotocin (STZ)—a glucosamine-nitrosourea antibiotic with structural similarity to glucose that is readily taken up by the pancreatic β cells—causes β cells toxicity and ultimately necrosis, leading to deficiency in insulin secretion. The use of Streptozotocin to induce type 1 diabetes in rats is advantageous, because it is easy, fast, and the effect of diabetes on the heart can be evaluated. Our aim was to assess the long-term effects of treatments on ...

[12] = Body weight after one month of treatment; format: in vivo, rat (male Sprague-Dawley); conditions: STZ-diabetic rats, N = 24
Description: as §2, §3

glucagon-like peptide-1 [GLP-1]
physiologic half-life [1]: very short physiologic half-life
vasodilation on binding to GLP-1 receptors [2]: induce vasodilation
vasodilation on GLP-1 infusion [3]: induce vasodilation

COCCCOc1cc(C[C@@H](C[C@H](N)[C@@H](O)C[C@H](C(=O)NCC(C)(C)C(N)=O)C(C)C)C(C)C)ccc1OC [Aliskiren]
effect of treatment on plasma GLP-1 level [4]: normalized
fraction of treated rats with normal blood glucose levels ([5]; Aliskiren 50 mg/kg oral qd, after one month): 12.5%
effect of treatment on blood glucose level [5]: significantly decreased blood glucose levels compared to the untreated
effect of treatment on GLP-1 binding affinity (τ) at the coronary endothelium ([6]; STZ-diabetic rats, one month of treatment, compared with diabetic (D) and normal (N)): did not alter τ from diabetics in the CE; also recorded: no significant change in its affinity; also recorded: did not ameliorate it
effect of treatment on K d of GLP-1 at the coronary endothelium ([6]; treated STZ-diabetic rats compared to the normal): extremely significant increase in K d constant
left ventricular hypertrophy [7]: reduce left ventricular hypertrophy as efficiently as angiotensin receptor blockers (ARBs)
insulin sensitivity [8]: improves insulin sensitivity
effect of treatment on GLP-1 binding affinity (τ) at the cardiomyocytes [9]: did not lower the affinity
nitric oxide synthase production by endothelial cells [10]: significantly restored

Insulin glargine
duration of action [11]: < 24 h

Exendin-4: GLP-1 analogue, GLP-1 receptor agonist (Sigma); group DE, 0.03 μg/kg ip bid
effect of treatment on plasma GLP-1 level [4]: normalized
effect of treatment on blood glucose level [5]: Although not significant, Exendin-4 treatment showed slight improvement
body weight vs diabetic untreated [12]: significant increase in their body weight
